Tests used:
C-telopeptides (C-Tx) = conditions: alendronate injection, horses confined to stall rest for 56 days, versus saline
From the text: (§1) Bone metabolism is monitored using standard techniques, i.e. serum assays to determine levels of markers of bone turnover, bone resorption and bone formation and ultrasound is used to assess changes in bone density.
(§2) Materials and Methods: Sixteen healthy adult thoroughbred horses (eight mares and eight male castrates) which had previously been running at pasture for at least 4 months are used.
(§3) The horses are randomly allocated to 4 treatment groups of four horses, each containing two mares and two male castrates. Serum samples are collected and ultrasound measurements are taken on three occasions directly before commencement of stall rest. Assays are conducted on the serum samples to determine pre-confinement levels of C-telopeptides (C-Tx; a collagen breakdown product that is a marker of bone resorption); osteocalcin (a marker of bone turnover) and bone specific alkaline phosphatase (a marker of bone formation). Ultrasound is used to measure the speed of transmission of sound waves through the bone.
(§4) Stall rest is commenced the day of first treatment. Serum samples are taken twice weekly and ultrasound measurements are taken each 14 days for the 56 days of the study to monitor changes in bone metabolism markers and in bone density relative to pre-confinement values. At the end of the study the horses are returned to the pasture.

[1] = system: bone specific alkaline phosphatase; conditions: Groups 2-4, i.v., 56 days stall rest; also reduced in placebo
From the text: as §1, §2, §3, §4

In the case of `NCCCC(O)(P(=O)(O)O)P(=O)(O)O` [alendronate, 4-amino-1-hydroxybutylidene-1,1-bisphosphonic acid monosodium trihydrate], the “bone resorption (result in words)” value (C-telopeptides (C-Tx)) is reported as “suppressed bone resorption” and the “marker for bone formation (bone specific alkaline phosphatase)” value [1] is reported as “reduced”.
